Entries after “also recorded” stand apart in the source; their conditions may differ.
What was measured:
male Wistar rats [1] = assay: Subcutaneous injection, hypoglycemic effect; type: in vivo, rat; conditions: 1 IU/kg
[2] = Precipitation / aggregation on mixing with LMWP during coupling; type: physicochemical; conditions: mixing with LMWP or LMWP-SH during the coupling process, observation
male Wistar rats [3] = assay: In situ ileal loop absorption experiment, hypoglycemic effect; conditions: 50 IU/kg
[4] = cell culture and animal studies; cited from earlier work
dogs = conditions: dog, in vivo; cited from earlier work

insulin
time of return of BGL to the basal level (~100%) (male Wistar rats [1]; s.c.): 6 h
BGLmin (minimum blood glucose level) (male Wistar rats [1]; sc., male Wistar rats, % of initial value, N=6): 65.75%
Tmin (time to reach BGLmin) (male Wistar rats [1]; sc., male Wistar rats, N=6): 1 h
AAC0→10h (area above the curve) (male Wistar rats [1]; sc., male Wistar rats, trapezoidal method, N=6): 10547 %min
PA0→10h (relative pharmacological availability) (male Wistar rats [1]; sc., reference route, N=6): 100.00%
appearance on mixing / reaction with LMWP (precipitation of insoluble complexes) [2]: significant precipitation
hypoglycemic effect (decrease in BGL compared with PBS negative control) (male Wistar rats [3]; male Wistar rats): no statistically significant decrease; also recorded: virtually no hypoglycemic effects
AAC0→10h (area above the curve) (male Wistar rats [3]; male Wistar rats, trapezoidal method, N=6): 2751 %min
PA0→10h (relative pharmacological availability) (male Wistar rats [3]; relative to s.c. insulin 1 IU/kg, male Wistar rats, N=6): 0.52%

Insulin-Polyethylene Glycol-Maleimide [Insulin-PEG-MAL]
appearance on mixing / reaction with LMWP (precipitation of insoluble complexes) [2]: transparent reaction mixture

Insulin-Polyethylene Glycol-Low Molecular Weight Protamine Conjugate [Insulin-PEG-LMWP]
BGL level maintained till the end of the study (10 h) (male Wistar rats [1]; s.c.): around 70%
reduction of BGL two hours following subcutaneous injection (male Wistar rats [1]; s.c., 2 h): about 30%
bioactivity of insulin after conjugation with LMWP (male Wistar rats [1]; s.c., compared with s.c. insulin): not to be impaired
transporting efficiency, times higher than that of native insulin, basolateral-to-apical flux (Caco-2 cell monolayer; Caco-2): 4.09 times
Peff (permeability coefficient), apical-to-basolateral (Caco-2 cell monolayer; Caco-2, pH 7.4): 5.33±0.03 ×10^-6 cm/s
Peff (permeability coefficient), basolateral-to-apical (Caco-2 cell monolayer; Caco-2, pH 7.4): 4.95±0.15 ×10^-6 cm/s
drop of BGL soon after administration (male Wistar rats [3]): 70%
Tmin (time to reach BGLmin) (male Wistar rats [3]; male Wistar rats, N=6): 6 h
BGL level remaining after the minimum (male Wistar rats [3]; over a period of 10 hours, % of initial value): 30–45%

VSRRRRRRGGRRRR [LMWP, Low Molecular Weight Protamine]
cell internalization potency relative to TAT [4]: equivalent
complement activation (dogs): only minor
hypotensive responses (dogs): non-detectable

From publication PMC3766633 (Biomaterials, 2013)
